In brackets after ≈: the same amount, converted by molar mass.
Key:
Format in all cases: functional
[1] = system: Trichophyton mentagrophytes; test: Antifungal activity against Trichophyton mentagrophytes after 48 hr
Pseudomonas aeruginosa [2] = test: Antibacterial activity against Pseudomonas aeruginosa ATCC 27853 after 24 hr by broth dilution method; details: ATCC 27853, 24 h
Candida albicans [3] = test: Antifungal activity against Candida albicans incubated for 48 hr followed by subculturing measured after 48 hr
[4] = system: Trichophyton mentagrophytes; test: Antifungal activity against Trichophyton mentagrophytes by disk diffusion method
Streptococcus pyogenes [5] = test: Antibacterial activity against Streptococcus pyogenes after 24 hr by broth dilution method
Escherichia coli [6] = test: Antibacterial activity against Escherichia coli ATCC 25922 incubated for 24 hr followed by subculturing measured after 18 to 24 hr
Candida albicans [7] = test: Antifungal activity against Candida albicans by disk diffusion method
Aspergillus fumigatus [8] = test: Antifungal activity against Aspergillus fumigatus by disk diffusion method
Klebsiella pneumoniae [9] = test: Antibacterial activity against Klebsiella pneumoniae clinical isolate after 24 hr by broth dilution method
Pseudomonas aeruginosa [10] = test: Antibacterial activity against Pseudomonas aeruginosa ATCC 27853 incubated for 24 hr followed by subculturing measured after 18 to 24 hr
Candida albicans [11] = test: Antifungal activity against Candida albicans after 48 hr
Escherichia coli [12] = test: Antibacterial activity against Escherichia coli ATCC 25922 after 24 hr by broth dilution method; details: ATCC 25922, 24 h
Talaromyces marneffei [13] = test: Antifungal activity against Talaromyces marneffei by disk diffusion method
Escherichia coli [14] = test: Antibacterial activity against Escherichia coli ATCC 25922 after 24 hr by disk diffusion method
Talaromyces marneffei [15] = test: Antifungal activity against Talaromyces marneffei after 48 hr
Streptococcus pyogenes [16] = test: Antibacterial activity against Streptococcus pyogenes after 24 hr by disk diffusion method
Streptococcus pyogenes [17] = test: Antibacterial activity against Streptococcus pyogenes incubated for 24 hr followed by subculturing measured after 18 to 24 hr
Aspergillus fumigatus [18] = test: Antifungal activity against Aspergillus fumigatus after 48 hr
Talaromyces marneffei [19] = test: Antifungal activity against Talaromyces marneffei incubated for 48 hr followed by subculturing measured after 48 hr
Klebsiella pneumoniae [20] = test: Antibacterial activity against Klebsiella pneumoniae clinical isolate incubated for 24 hr followed by subculturing measured after 18 to 24 hr
[21] = system: Trichophyton mentagrophytes; test: Antifungal activity against Trichophyton mentagrophytes incubated for 48 hr followed by subculturing measured after 48 hr
Pseudomonas aeruginosa [22] = test: Antibacterial activity against Pseudomonas aeruginosa ATCC 27853 after 24 hr by disk diffusion method
Klebsiella pneumoniae [23] = test: Antibacterial activity against Klebsiella pneumoniae clinical isolate after 24 hr by disk diffusion method
Aspergillus fumigatus [24] = test: Antifungal activity against Aspergillus fumigatus incubated for 48 hr followed by subculturing measured after 48 hr

## CCCCCC[C@@H](O)C/C=C\CCCCCCCC(=O)NN1C(=O)CSC1c1ccc(Cl)cc1 (some centres not stated)
[1]
  MIC: 25 mg/L (≈ 49.1 µM)
Pseudomonas aeruginosa [2]
  MIC: 50 mg/L (≈ 98.2 µM)
Candida albicans [3]
  MFC: 50 mg/L (≈ 98.2 µM)
[4]
  diameter of the inhibition zone (DIZ): 18.2 mm
Streptococcus pyogenes [5]
  MIC: 50 mg/L (≈ 98.2 µM)
Escherichia coli [6]
  MBC: > 100 mg/L
Candida albicans [7]
  diameter of the inhibition zone (DIZ): 23.7 mm
Aspergillus fumigatus [8]
  diameter of the inhibition zone (DIZ): 20.6 mm
Klebsiella pneumoniae [9]
  MIC: 25 mg/L (≈ 49.1 µM)
Pseudomonas aeruginosa [10]
  MBC: 100 mg/L (≈ 196 µM)
Candida albicans [11]
  MIC: 25 mg/L (≈ 49.1 µM)
Escherichia coli [12]
  MIC: 50 mg/L (≈ 98.2 µM)
Talaromyces marneffei [13]
  diameter of the inhibition zone (DIZ): 14.4 mm
Escherichia coli [14]
  diameter of the inhibition zone (DIZ): 14.5 mm
Talaromyces marneffei [15]
  MIC: 25 mg/L (≈ 49.1 µM)
Streptococcus pyogenes [16]
  diameter of the inhibition zone (DIZ): 17.1 mm
Streptococcus pyogenes [17]
  MBC: 100 mg/L (≈ 196 µM)
Aspergillus fumigatus [18]
  MIC: 25 mg/L (≈ 49.1 µM)
Talaromyces marneffei [19]
  MFC: 100 mg/L (≈ 196 µM)
Klebsiella pneumoniae [20]
  MBC: 100 mg/L (≈ 196 µM)
[21]
  MFC: 50 mg/L (≈ 98.2 µM)
Pseudomonas aeruginosa [22]
  diameter of the inhibition zone (DIZ): 14.1 mm
Klebsiella pneumoniae [23]
  diameter of the inhibition zone (DIZ): 14.5 mm
Aspergillus fumigatus [24]
  MFC: 50 mg/L (≈ 98.2 µM)

## C=CCCCCCCCCC(=O)NN1C(=O)CSC1c1ccc(Cl)cc1 (configuration not stated)
[1]
  MIC: 12.5 mg/L (≈ 31.6 µM)
Pseudomonas aeruginosa [2]
  MIC: 12.5 mg/L (≈ 31.6 µM)
Candida albicans [3]
  MFC: 25 mg/L (≈ 63.3 µM)
[4]
  diameter of the inhibition zone (DIZ): 19.2 mm
Streptococcus pyogenes [5]
  MIC: 25 mg/L (≈ 63.3 µM)
Escherichia coli [6]
  MBC: 50 mg/L (≈ 127 µM)
Candida albicans [7]
  diameter of the inhibition zone (DIZ): 27.1 mm
Aspergillus fumigatus [8]
  diameter of the inhibition zone (DIZ): 22.2 mm
Klebsiella pneumoniae [9]
  MIC: 25 mg/L (≈ 63.3 µM)
Pseudomonas aeruginosa [10]
  MBC: 25 mg/L (≈ 63.3 µM)
Candida albicans [11]
  MIC: 12.5 mg/L (≈ 31.6 µM)
Escherichia coli [12]
  MIC: 25 mg/L (≈ 63.3 µM)
Talaromyces marneffei [13]
  diameter of the inhibition zone (DIZ): 14.6 mm
Escherichia coli [14]
  diameter of the inhibition zone (DIZ): 19.8 mm
Talaromyces marneffei [15]
  MIC: 12.5 mg/L (≈ 31.6 µM)
Streptococcus pyogenes [16]
  diameter of the inhibition zone (DIZ): 20.2 mm
Streptococcus pyogenes [17]
  MBC: 50 mg/L (≈ 127 µM)
Aspergillus fumigatus [18]
  MIC: 12.6 mg/L (≈ 31.8 µM)
Talaromyces marneffei [19]
  MFC: 25 mg/L (≈ 63.3 µM)
Klebsiella pneumoniae [20]
  MBC: 50 mg/L (≈ 127 µM)
[21]
  MFC: 50 mg/L (≈ 127 µM)
Pseudomonas aeruginosa [22]
  diameter of the inhibition zone (DIZ): 22.3 mm
Klebsiella pneumoniae [23]
  diameter of the inhibition zone (DIZ): 18.3 mm
Aspergillus fumigatus [24]
  MFC: 25 mg/L (≈ 63.3 µM)

## CCCCC/C=C\CC[C@H](O)CCCCCCCC(=O)NN1C(=O)CSC1c1ccc(Cl)cc1 (some centres not stated)
[1]
  MIC: 25 mg/L (≈ 49.1 µM)
Pseudomonas aeruginosa [2]
  MIC: 50 mg/L (≈ 98.2 µM)
Candida albicans [3]
  MFC: 50 mg/L (≈ 98.2 µM)
[4]
  diameter of the inhibition zone (DIZ): 14.8 mm
Streptococcus pyogenes [5]
  MIC: 25 mg/L (≈ 49.1 µM)
Escherichia coli [6]
  MBC: 100 mg/L (≈ 196 µM)
Candida albicans [7]
  diameter of the inhibition zone (DIZ): 21.2 mm
Aspergillus fumigatus [8]
  diameter of the inhibition zone (DIZ): 18.7 mm
Klebsiella pneumoniae [9]
  MIC: 50 mg/L (≈ 98.2 µM)
Pseudomonas aeruginosa [10]
  MBC: 100 mg/L (≈ 196 µM)
Candida albicans [11]
  MIC: 25 mg/L (≈ 49.1 µM)
Escherichia coli [12]
  MIC: 50 mg/L (≈ 98.2 µM)
Talaromyces marneffei [13]
  diameter of the inhibition zone (DIZ): 13.3 mm
Escherichia coli [14]
  diameter of the inhibition zone (DIZ): 14.3 mm
Talaromyces marneffei [15]
  MIC: 25 mg/L (≈ 49.1 µM)
Streptococcus pyogenes [16]
  diameter of the inhibition zone (DIZ): 15.5 mm
Streptococcus pyogenes [17]
  MBC: 100 mg/L (≈ 196 µM)
Aspergillus fumigatus [18]
  MIC: 25 mg/L (≈ 49.1 µM)
Talaromyces marneffei [19]
  MFC: 100 mg/L (≈ 196 µM)
Klebsiella pneumoniae [20]
  MBC: > 100 mg/L
[21]
  MFC: 100 mg/L (≈ 196 µM)
Pseudomonas aeruginosa [22]
  diameter of the inhibition zone (DIZ): 13.9 mm
Klebsiella pneumoniae [23]
  diameter of the inhibition zone (DIZ): 13.9 mm
Aspergillus fumigatus [24]
  MFC: 100 mg/L (≈ 196 µM)
